Assay results from patent US20120027741A1 (priority 2009, published 2012).
Like-named read-outs stand apart in the source and are kept apart here.

What was measured:
Assay type in all cases: in vivo
Phytophthora infestans = test: whole plant or invertebrate; conditions: Phytophthora infestans, 72 h, tomatoes, 3 days after inoculation; for pest or weed control at 0.4 ppm: 0.4 ppm a.i.; for pest or weed control at 0.125 ppm: 0.125 ppm a.i.; for pest or weed control at 0.5 ppm: 0.5 ppm a.i.
Botrytis cinerea = test: Botrytis test (beans)/protective; conditions: 48 h, 2 days after inoculation, read-out: Efficacy in % found
Description: Botrytis Test (Beans)/Protective
(§1) Solvent: • 24,5 parts by weight of acetone • 24,5 parts by weight of dimethylacetamide
(§2) Emulsifier: • 1 part by weight of alkylaryl polyglycol ether
(§3) To produce a suitable preparation of active compound, 1 part by weight of active compound is mixed with the stated amounts of solvent and emulsifier, and the concentrate is diluted with water to the desired concentration.
To test for protective activity, young plants are sprayed with the preparation of active compound. After the spray coating has dried on, 2 small pieces of agar covered with growth of Botrytis cinerea are placed on each leaf. The inoculated plants are placed in a darkened chamber at 20° C. and a relative atmospheric humidity of 100%.
2 days after the inoculation, the size of the lesions on the leaves is evaluated. 0% means an efficacy which corresponds to that of the control, while an efficacy of 100% means that no disease is observed.

Pythium ultimum = test: Pythium test (cotton)/seed treatment; conditions: Table 11, 0.1 g a.i./dt, emerged seedlings after 7 days
Description: Pythium Test (Cotton)/Seed Treatment
The test is performed under greenhouse conditions.
Cotton seeds, treated with the active compound or compound combinations, solved in N-methyl-2-pyrrolidon and diluted with water to the desired dosages, were sown in 6*6 cm pots containing 4 cm of a 1:1 mix of steamed field soil and sand.
Perlite was incubated with mycelium fragments of Pythium ultimum. 1 ml of infected perlite was scattered between the treated cotton seeds. Seeds were then covered by light expanded clay aggregate. Pots were incubated in the greenhouse 7 days at 20° C. and 80% relative humidity.
Assessment consisted of counting of emerged seedlings. 0% means an efficacy which to corresponds to that of the control, while an efficacy of 100% means that all seedlings have emerged.

Sphaerotheca fuliginea = test: Sphaerotheca test (cucumbers)/protective; conditions: Podosphaera fuliginea, 168 h, 7 days after inoculation, read-out: Efficacy in % found
Description: Sphaerotheca Test (Cucumbers)/Protective
as §1, §2, §3
To test for protect activity, young plants are sprayed with the preparation of active compound at the stated rate of application. After the spray coating has dried on, the plants are inoculated with to an aqueous spore suspension of Sphaerotheca fuliginea. The plants are then placed in a greenhouse at approximately 23° C. and a relative atmospheric humidity of approximately 70%.
The test is evaluated 7 days after the inoculation. 0% means an efficacy which corresponds to that of the control, while an efficacy of 100% means that no disease is observed.

[1] = read-out: Efficacy in % found, Table 3

SMILES: C#CCCOC(=O)Nc1cccc(CO/N=C(/c2ccccc2)c2nnnn2C)n1 [Ex. A, but-3-yn-1-yl {6-[({[(Z)-(1-methyl-1H-tetrazol-5-yl)(phenyl)methylene]amino}oxy)methyl]pyridin-2-yl}carbamate]
- pest or weed control at 0.1 ppm (Phytophthora infestans; read-out: Efficacy in % found, Table 1, 0.1 ppm a.i.): 7%
- pest or weed control at 0.2 ppm (Phytophthora infestans; read-out: Efficacy in % found, Table 1, 0.2 ppm a.i.): 23%
- pest or weed control at 0.4 ppm (Phytophthora infestans; read-out: Efficacy in % found, Table 1): 16%
- pest or weed control at 0.125 ppm (Phytophthora infestans; read-out: Efficacy in % found, Table 2): 20%
- pest or weed control at 0.125 ppm (Phytophthora infestans; [1]): 35%
- pest or weed control at 0.5 ppm (Phytophthora infestans; [1]): 74%
- pest or weed control at 0.4 ppm (Phytophthora infestans; read-out: Efficacy in % found, Table 4): 55%
- pest or weed control at 0.5 ppm (Phytophthora infestans; read-out: Efficacy in % found, Table 5): 70%
- pest or weed control at 0.125 ppm (Phytophthora infestans; read-out: Efficacy in % found, Table 6): 58%
- pest or weed control at 25 ppm (Botrytis cinerea; Table 9, 25 ppm a.i.): 15%
- pest or weed control at 50 ppm (Botrytis cinerea; Table 9, 50 ppm a.i.): 40%
- pest or weed control at 50 ppm (Botrytis cinerea; Table 10, 50 ppm a.i.): 0%
- Efficacy in % found (Pythium ultimum): 30%
- pest or weed control at 25 ppm (Sphaerotheca fuliginea; Table 7, 25 ppm a.i.): 13%
- pest or weed control at 50 ppm (Sphaerotheca fuliginea; Table 7, 50 ppm a.i.): 13%
- pest or weed control at 100 ppm (Sphaerotheca fuliginea; Table 7, 100 ppm a.i.): 13%
- pest or weed control at 100 ppm (Sphaerotheca fuliginea; Table 8, 100 ppm a.i.): 0%
